For orientation: IC50 means the concentration that gives 50% inhibition. Read a high IC50 as weaker potency.

The first experiment addresses T1, human TPH1 (Homo sapiens, UniProt P17752).
T1 sequence (P17752 1-444): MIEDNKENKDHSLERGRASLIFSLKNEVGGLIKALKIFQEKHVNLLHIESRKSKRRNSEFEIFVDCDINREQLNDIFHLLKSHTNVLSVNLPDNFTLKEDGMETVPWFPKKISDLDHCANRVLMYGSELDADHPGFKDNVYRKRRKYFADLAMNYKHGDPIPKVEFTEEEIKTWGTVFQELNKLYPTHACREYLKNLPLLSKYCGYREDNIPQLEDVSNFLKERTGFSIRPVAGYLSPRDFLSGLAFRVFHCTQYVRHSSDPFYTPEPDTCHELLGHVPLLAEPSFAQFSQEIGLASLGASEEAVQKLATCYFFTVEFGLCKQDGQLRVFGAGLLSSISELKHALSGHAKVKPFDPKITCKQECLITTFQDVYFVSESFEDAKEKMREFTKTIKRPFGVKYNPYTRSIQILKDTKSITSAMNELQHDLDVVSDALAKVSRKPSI
Description: biochemical.
Settings: not given
Put shortly:
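Inhibition is derived from 5-hydroxy-L-tryptophan fluorescence (540 nm emission, 300 nm excitation) after perchloric acid stop, relative to DMSO vehicle. Recombinant full-length human enzyme (40-80 nM) reacts with 40 μM tryptophan plus 100 μM methyltetrahydropterin, pH 7.6 Tris/DTT/catalase, 15° C, 60 min.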
Turning to `O=C(COc1ccc(CN2CCOCC2)cc1Cl)N1CCc2nc3cc(C(F)(F)F)ccn3c2C1c1ccc(Cl)cc1` (centres unmarked) [Example 3.30.2, 2-(2-chloro-4-(morpholinomethyl)phenoxy)-1-(1-(4-chlorophenyl)-7-(trifluoromethyl)-3,4-dihydroimidazo[1,2-a:5,4-c′]dipyridin-2(1H)-yl)ethan-1-one], it took 20 nM to reach half-maximal inhibition (IC50).

In turn, `O=C(COc1ccc(N2CCOCC2)nc1Cl)N1CCc2nc3cccnn3c2C1c1ccc(C2CC2)cc1F` (centres unmarked) [Example 16.1.2, 2-((2-chloro-6-morpholinopyridin-3-yl)oxy)-1-(9-(4-cyclopropyl-2-fluorophenyl)-6,9-dihydropyrido[4′,3′:4,5]imidazo[1,2-b]pyridazin-8(7H)-yl)ethan-1-one] had a half-maximal inhibitory concentration (IC50) of 8 nM.

`COc1ccc(C2c3c(nc4ccc(C)cn34)CCN2C(=O)COc2ccc3ccccc3c2)cc1OC` (centres unmarked) [Example 7.1.2, 1-(1-(3,4-dimethoxyphenyl)-8-methyl-3,4-dihydroimidazo[1,2-a:5,4-c′]dipyridin-2(1H)-yl)-2-(naphthalen-2-yloxy)ethan-1-one]: the IC50 worked out at 38 nM.

`Cc1ccc(C2c3c(nc4cc(C(F)(F)F)ccn34)CCN2C(=O)COc2ccc(CN3CCOCC3)cc2Cl)c(F)c1` (centres unmarked) [Example 3.22.1, 2-(2-chloro-4-(morpholinomethyl)phenoxy)-1-(1-(2-fluoro-4-methylphenyl)-7-(trifluoromethyl)-3,4-dihydroimidazo[1,2-a:5,4-c′]dipyridin-2(1H)-yl)ethan-1-one]: inhibition was half-maximal at 7 nM (IC50).

Compound `Cc1ccc(C2c3c(nc4cc(C(F)(F)F)ccn34)CCN2C(=O)COc2ccc(NS(C)(=O)=O)nc2Cl)c(F)c1` (centres unmarked) [Example 3.22.5, N-(6-chloro-5-(2-(1-(2-fluoro-4-methylphenyl)-7-(trifluoromethyl)-3,4-dihydroimidazo[1,2-a:5,4-c′]dipyridin-2(1H)-yl)-2-oxoethoxy)pyridin-2-yl)methanesulfonamide] returned an IC50 of 15 nM.

For the compound `COc1cc(F)c(C2c3c(nc4cc(C(F)(F)F)ccn34)CCN2C(=O)COc2ccc(C3(N[S+]([O-])C(C)(C)C)COC3)cc2Cl)cc1OC` (centres unmarked) [Example 3.18.8, N-(3-(3-chloro-4-(2-(1-(2-fluoro-4,5-dimethoxyphenyl)-7-(trifluoromethyl)-3,4-dihydroimidazo[1,2-a:5,4-c′]dipyridin-2(1H)-yl)-2-oxoethoxy)phenyl)oxetan-3-yl)-2-methylpropane-2-sulfinamide], inhibition was half-maximal at 48 nM (IC50).

Take `COc1ccc(C2c3c(nc4ccccn34)CCN2C(=O)COc2ccc3ccccc3c2C)cc1OC` (centres unmarked) [Example 1.1.6, 1-(1-(3,4-dimethoxyphenyl)-3,4-dihydroimidazo[1,2-a:5,4-c′]dipyridin-2(1H)-yl)-2-((1-methylnaphthalen-2-yl)oxy)ethan-1-one]: the IC50 was 12 nM.

As to `COc1ccc(C2c3c(nc4cc(C(F)(F)F)ccn34)CCN2C(=O)COc2cnc3c(c2)ncn3C)cc1OC` (centres unmarked) [Example 3.1.23], the IC50 worked out at 382 nM.

In turn, `CCc1nc(C)ccc1OCC(=O)N1CCc2nc3cccnn3c2C1c1ncc(C2CC2)cc1F` (centres unmarked) [Example 16.2.2, 1-(9-(5-cyclopropyl-3-fluoropyridin-2-yl)-6,9-dihydropyrido[4′,3′:4,5]imidazo[1,2-b]pyridazin-8(7H)-yl)-2-((2-ethyl-6-methylpyridin-3-yl)oxy)ethan-1-one] came in with an IC50 of 128 nM.

The compound `COc1ccc(C2c3c(nc4cc(Cl)ccn34)CCN2C(=O)COc2ccc(CN3CCOCC3)cc2Cl)cc1O` (centres unmarked) [Example 2.8.2, 1-(7-chloro-1-(3-hydroxy-4-methoxyphenyl)-3,4-dihydroimidazo[1,2-a:5,4-c′]dipyridin-2(1H)-yl)-2-(2-chloro-4-(morpholinomethyl)phenoxy)ethan-1-one] came in with an IC50 of 154 nM.

Take `COC(=O)c1ccc(C2c3c(nc4ccccn34)CCN2C(=O)COc2ccc(NS(C)(=O)=O)nc2Cl)c(F)c1` (centres unmarked) [Example 1.15.1, methyl-4-(2-(2-((2-chloro-6-(methylsulfonamido)pyridin-3-yl)oxy)acetyl)-1,2,3,4-tetrahydroimidazo[1,2-a:5,4-c′]dipyridin-1-yl)-3-fluorobenzoate]: the IC50 was found to be 71 nM.

`CCc1ncccc1OCC(=O)N1CCc2nc3ccccn3c2C1c1ccc(Cl)nc1F` (centres unmarked) [Example 1.11.2, 1-(1-(6-chloro-2-fluoropyridin-3-yl)-3,4-dihydroimidazo[1,2-a:5,4-c′]dipyridin-2(1H)-yl)-2-((2-ethylpyridin-3-yl)oxy)ethan-1-one]: the IC50 was 123 nM.

`Cc1noc(C)c1C1c2c(nc3cc(C(F)(F)F)ccn23)CCN1C(=O)COc1ccc2ccccc2c1` (centres unmarked) [Example 3.51.1, 1-(1-(3,5-dimethylisoxazol-4-yl)-7-(trifluoromethyl)-3,4-dihydroimidazo[1,2-a:5,4-c′]dipyridin-2(1H)-yl)-2-(naphthalen-2-yloxy)ethan-1-one] came in with an IC50 of 87 nM.

`COc1cc(F)c(C2c3c(nc4cc(C(F)(F)F)ccn34)CCN2C(=O)COc2ccc3c(c2)CN(C(C)=O)CC3)cc1OC` (centres unmarked) [Example 3.18.6, 2-((2-acetyl-1,2,3,4-tetrahydroisoquinolin-7-yl)oxy)-1-(1-(2-fluoro-4,5-dimethoxyphenyl)-7-(trifluoromethyl)-3,4-dihydroimidazo[1,2-a:5,4-c′]dipyridin-2(1H)-yl)ethan-1-one]: inhibition was half-maximal at 6 nM (IC50).

Consider `CN(CCO)c1ccc(OCC(=O)N2CCc3nc4ccccn4c3C2c2ccc(Cl)cc2F)c(Cl)n1` (centres unmarked) [Example 1.4.10, 1-(1-(4-chloro-2-fluorophenyl)-3,4-dihydroimidazo[1,2-a:5,4-c′]dipyridin-2(1H)-yl)-2-((2-chloro-6-((2-hydroxyethyl)(methyl)amino)pyridin-3-yl)oxy)ethan-1-one], for which 87 nM corresponded to half-maximal inhibition (IC50).

With `COc1ccc(C2c3c(nc4cc(C(F)(F)F)ccn34)CCN2C(=O)COc2ccc3c(c2)OCO3)cc1OC` (centres unmarked) [Example 3.1.21], the IC50 was 116 nM.

As for `CS(=O)(=O)Nc1ccc(OCC(=O)N2CCc3nc4ccc(F)cn4c3C2c2ccc(Cl)cc2F)c(Cl)n1` (centres unmarked) [Example 11.2.1, N-(6-chloro-5-(2-(1-(4-chloro-2-fluorophenyl)-8-fluoro-3,4-dihydroimidazo[1,2-a:5,4-c′]dipyridin-2(1H)-yl)-2-oxoethoxy)pyridin-2-yl)methanesulfonamide], the IC50 was found to be 72 nM.

With `O=C(COc1ccc(CN2CCOCC2)cc1Cl)N1CCc2nc3cc(C(F)(F)F)ccn3c2C1c1ccc(F)c(F)c1` (centres unmarked) [Example 3.34.2, 2-(2-chloro-4-(morpholinomethyl)phenoxy)-1-(1-(3,4-difluorophenyl)-7-(trifluoromethyl)-3,4-dihydroimidazo[1,2-a:5,4-c′]dipyridin-2(1H)-yl)ethan-1-one], the midpoint of inhibition, the IC50, lay at 242 nM.

In turn, `Cc1ccc(C2c3c(nc4cc(C(F)(F)F)ccn34)CCN2C(=O)COc2ccc3ccccc3c2)nc1` (centres unmarked) [Example 3.50.1, 1-(1-(5-methylpyridin-2-yl)-7-(trifluoromethyl)-3,4-dihydroimidazo[1,2-a:5,4-c′]dipyridin-2(1H)-yl)-2-(naphthalen-2-yloxy)ethan-1-one] gave an IC50 of 58 nM.

In turn, `CS(=O)(=O)Nc1ccc(OC2(C(=O)N3CCc4nc5ccccn5c4C3c3ccc(Cl)cc3F)CC2)c(Cl)n1` (centres unmarked) [Example 1.4.16, N-(6-chloro-5-(1-(1-(4-chloro-2-fluorophenyl)-1,2,3,4-tetrahydroimidazo[1,2-a:5,4-c′]dipyridine-2-carbonyl)cyclopropoxy)pyridin-2-yl)methanesulfonamide] returned an IC50 of 488 nM.

Compound `COc1ccc(C2c3c(nc4cc(C(F)(F)F)ccn34)CCN2C(=O)COc2cc(C(F)(F)F)ccc2Cl)cc1OC` (centres unmarked) [Example 3.1.4] showed an IC50 of 202 nM.

`CCc1nc(C)ccc1OCC(=O)N1CCc2nc3ccccn3c2C1c1ncc(C2CC2)cc1F` (centres unmarked) [Example 1.12.3, 1-(1-(5-cyclopropyl-3-fluoropyridin-2-yl)-3,4-dihydroimidazo[1,2-a:5,4-c′]dipyridin-2(1H)-yl)-2-((2-ethyl-6-methylpyridin-3-yl)oxy)ethan-1-one] registered an IC50 of 146 nM.

`O=C(COc1ccc(N2CCOCC2)cc1Cl)N1CCc2nc3cc(C(F)(F)F)ccn3c2C1c1ccc(C2CC2)cc1F` (centres unmarked) [Example 3.5.2, 2-(2-chloro-4-morpholinophenoxy)-1-(1-(4-cyclopropyl-2-fluorophenyl)-7-(trifluoromethyl)-3,4-dihydroimidazo[1,2-a:5,4-c′]dipyridin-2(1H)-yl)ethan-1-one] gave a half-inhibitory concentration (IC50) of 6 nM.

Consider `COc1ccc(C2c3c(nc4cc(C(F)(F)F)ccn34)CCN2C(=O)COc2ccccc2C)cc1OC` (centres unmarked) [Example 3.1.5], for which half-maximal inhibition (IC50) required 153 nM.

As for `O=C(COc1ccc(N2CCOCC2)nc1Cl)N1CCc2nc3cnccn3c2C1c1ccc(C2CC2)cc1F` (centres unmarked) [Example 17.1.1, 2-((2-chloro-6-morpholinopyridin-3-yl)oxy)-1-(1-(4-cyclopropyl-2-fluorophenyl)-3,4-dihydropyrido[4′,3′:4,5]imidazo[1,2-a]pyrazin-2(1H)-yl)ethan-1-one], the IC50 amounted to 29 nM.

Staying with this experiment, now noted: Table 3; inhibitory activity on tryptophan hydroxylase 1.
As to “1-(1-(3,4-dimethoxyphenyl)-7-(trifluoromethyl)-3,4-dihydroimidazo[1,2-a:5,4-c′]dipyridin-2(1H)-yl)-2-(3-(trifluoromethyl)phenoxy)ethan-1-one [Example 3.1.10]”, the IC50 turned out to be 251 nM.

The record behind these values is patent US20180155344A1, “TRICYCLIC PIPERIDINE COMPOUNDS” (ACTELION PHARMACEUTICALS LTD, priority 2015, published 2018).
